Test [1] concerns the target T1, Vitamin D3 receptor (Bos taurus) (UniProt Q28037).
T1 sequence (whole entry): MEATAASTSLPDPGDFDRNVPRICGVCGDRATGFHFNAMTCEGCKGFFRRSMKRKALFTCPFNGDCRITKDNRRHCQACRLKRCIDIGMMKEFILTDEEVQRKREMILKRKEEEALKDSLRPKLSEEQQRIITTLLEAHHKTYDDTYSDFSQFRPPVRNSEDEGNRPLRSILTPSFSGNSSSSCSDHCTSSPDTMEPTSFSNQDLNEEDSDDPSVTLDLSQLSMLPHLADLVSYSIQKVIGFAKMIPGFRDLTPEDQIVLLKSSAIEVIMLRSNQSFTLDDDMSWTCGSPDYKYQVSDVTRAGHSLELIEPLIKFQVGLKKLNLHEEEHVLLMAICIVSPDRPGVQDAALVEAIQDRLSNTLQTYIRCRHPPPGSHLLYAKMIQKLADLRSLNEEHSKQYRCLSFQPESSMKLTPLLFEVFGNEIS
The test is described as follows: Relative binding for bovine thymus vitamin D receptor (VDR) by displacement with [3H]1-alpha,25(OH)2D3.

In test [2] the target is T2, Vitamin D-binding protein (Rattus norvegicus) (UniProt P04276).
T2 sequence (whole entry): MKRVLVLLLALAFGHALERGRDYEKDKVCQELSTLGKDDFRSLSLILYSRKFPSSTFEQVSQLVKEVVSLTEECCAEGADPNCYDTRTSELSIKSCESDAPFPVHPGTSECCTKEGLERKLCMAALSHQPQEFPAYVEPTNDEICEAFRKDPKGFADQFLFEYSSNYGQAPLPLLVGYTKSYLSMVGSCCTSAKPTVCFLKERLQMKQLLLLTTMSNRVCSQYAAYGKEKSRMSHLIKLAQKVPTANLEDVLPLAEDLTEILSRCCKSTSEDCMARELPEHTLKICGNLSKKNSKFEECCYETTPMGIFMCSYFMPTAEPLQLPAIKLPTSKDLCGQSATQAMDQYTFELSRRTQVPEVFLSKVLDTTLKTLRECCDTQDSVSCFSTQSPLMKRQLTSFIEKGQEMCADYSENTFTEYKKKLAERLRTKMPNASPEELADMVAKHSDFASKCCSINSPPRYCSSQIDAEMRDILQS
Nature of the test: Relative binding potency for rat vitamin D binding protein (DBP) by competitive displacement with [3H]1-alpha,25(OH)2D3.

For another test, the system named is HL-60. The test is described as follows: Antiproliferative activity in human promyeloid leukemia cells (HL-60). Format: functional.

The record followed here is ChEMBL document CHEMBL1127916, “Synthesis and biological character of 1-hydroxylated vitamin D3 Analogues” (1994).

In the case of `C=C1/C(=C\C=C2/CCC[C@@]3(C)C2CC[C@@H]3[C@H](C)CCCC(C)(C)O)C[C@@H](O)[C@@H](OCCCO)[C@H]1O` (stereo partly specified), the Relative binding potency in test [1] is 0.003; in test [2] it was 6.7.
`C=C1/C(=C\C=C2/CCC[C@]3(C)[C@@H]([C@H](C)CCCC(C)(C)O)CC[C@@H]23)C[C@@H](O)C[C@@H]1O` [CALCITRIOL]: the Relative binding potency in test [1] and in test [2] was 1 in each case. In the test on HL-60, this compound yielded a Relative potency of 1.
As for `C=C1/C(=C\C=C2/CCC[C@]3(C)[C@@H]([C@H](C)OCCC(C)(C)O)CC[C@@H]23)C[C@@H](O)C[C@@H]1O` [MAXACALCITOL], the figures for the Relative binding potency in test [1] and in test [2] were 0.6 and 0.002, respectively. Further, in the test on HL-60, the Relative potency is given as 3.1.
Regarding `C=C1/C(=C\C=C2/CCC[C@@]3(C)C2CC[C@@H]3[C@H](C)OCCC(C)(C)O)C[C@@H](O)C[C@H]1O` (stereo partly specified), the Relative binding potency in test [1] and in test [2] was 0.007 in each case. The compound also gave a Relative potency with HL-60 of 0.003.
With `C=C1/C(=C\C=C2/CCC[C@@]3(C)C2CC[C@@H]3[C@H](C)CCCC(C)(C)O)C[C@@H](O)[C@@H](OCCCO)[C@@H]1O` (stereo partly specified), the values for the Relative binding potency in test [1] and in test [2] were 0.7 and 4.1, respectively.
For the compound `C=C1/C(=C\C=C2/CCC[C@@]3(C)C2CC[C@@H]3[C@H](C)CCCC(C)(C)O)C[C@@H](O)C[C@H]1O` (stereo partly specified), the Relative binding potency was 0.2 in test [1] and 2.9 in test [2]. In addition, the Relative potency in the test with HL-60 is recorded as 0.2.
